{
  "source": "patent US11506654B2",
  "about": "“Method, composition and kit for screening ALK or ROS-1 kinase inhibitor” (KOREA INSTITUTE OF SCIENCE AND TECHNOLOGY, priority 2018, dated 2022)",
  "assay_type_in_all_cases": "cell-based",
  "key": {"HCC-78 cells": {"test_system": "HCC-78 cells", "experiment": "WST-1 assay, cell growth inhibitory effect on lung carcinoma cell line (HCC-78)", "conditions": "for inhibition of growth of HCC-78 cells (in words): 1 μM, 24, 48 and 72 hours, Student's t-test, p<0.05; for growth rate of HCC-78 cells (control group = 100%): 1 μM", "experimental": "Specifically, HCC-78 lung cancer cells deposited under an accession number of KCTC13642BP on Sep. […] At this time, DMSO (dimethyl sulfoxide) was added to a control group in an amount to be 0.01% of the total medium, 1 μM doxorubicin was added to a positive control group, and then these control group and positive control group were cultured for 24, 48, and 72 hours, respectively. In addition, the experiment was conducted using an A549 cell line instead of the HCC cell line as a negative control group. The A549 cell line is a kRAS mutant cell line and is also a cell line which is not involved in the overexpression of ALK and ROS-1.\nWhen each of the culture times passed after drug treatment, the WST-1 reagent was added to each medium in an amount to be 10% of the medium, the cells were cultured for 1 hour, and then the absorbance of cells was measured at 470 nm by using an ELISA instrument."}, "HCC-78 cell line": {"test_system": "HCC-78 cell line", "experiment": "Change in metabolites in HCC-78 cell line after ALK/ROS-1 kinase inhibitor treatment, UHPLC-MS", "conditions": "HCC-78, 1 μM, 24 hours, n=5", "method": "HCC-78 lung cancer cells were cultured in a 5% carbon dioxide cell incubator at a temperature of 37° C. using a RPMI medium containing 10% fetal bovine serum and 1% antibiotic. […] At this time, as a control group, DMSO (dimethyl sulfoxide) was added to the cells in an amount to be 0.01% of the total medium, and the cells were cultured for 24 hours. Each cell was cultured in 5 cell dishes for each group so that the total number of experiments for each group was 5 (n=5).\nAfter the culture time of 24 hours had elapsed, the medium was removed, and the cells were washed two times with PBS (phosphate buffered saline). The cells were then acquired from the culture dish using a cell scraper, put in a tube, and stored at −80° C.\n(§1) Thereafter, a process in which the mixed solution was frozen using liquid nitrogen, dissolved in water at room temperature, and then sonicated for 30 seconds was repeated three times to destroy the cells. Thereafter, the resultant mixed solution was subjected to centrifugation at 14000 rpm for 10 minutes, and only the supernatant was separated from this. At this time, DNA quantitation was conducted in order to correct the cell volume of the intracellular fluid extract acquired according to the series of procedures. DNA quantitation was conducted by mixing the extract with water at a ratio of 1:3, putting 5 μL of the mixture in a cuvette, and measuring the quantity at 260 nm by using a spectrophotometer Nano-MD of SHINKO CO., LTD.\n(§2) Specifically, 10 μL of the acquired sample was injected into the ultra-high-performance liquid chromatography system-mass spectrometer, and the temperature of the injector was maintained at 4° C. […]\n(§3) Specifically, Excel raw data attained by conducting calibration and peak alignment using the compound discovery software of Thermo Fisher Scientific Inc. was extracted from the chromatogram. […] The extracted file was first divided by the internal standard substance and corrected using DNA quantitation of cells, and statistical processing was conducted using SIMCA software. […]"}, "MCF-7 cell line": {"test_system": "MCF-7 cell line", "experiment": "Change in metabolites in MCF-7 cell line after crizotinib treatment, UHPLC-MS", "conditions": "MCF-7, 1 μM, 12 hours, n=5", "method": "MCF-7 breast cancer cells were cultured in a 5% carbon dioxide cell incubator at a temperature of 37° C. using a DMEM medium containing 10% fetal bovine serum and 1% antibiotic. […] At this time, as a control group, DMSO was added to the cells in an amount to be 0.01% of the total medium, and the cells were cultured for 12 hours. Each cell was cultured in 5 cell dishes for each group so that the total number of experiments for each group was 5 (n=5).\nAfter the culture time of 12 hours had elapsed, the medium was removed, and the cells were washed two times with PBS. The cells were then acquired from the culture dish using a cell scraper, put in a tube, and stored at −80° C.\nas §1, §2, §3"}, "[1]": {"test_system": "MCF-7 breast cancer cells", "experiment": "MTT assay, cell viability of breast cancer cell line (MCF-7)", "conditions": "1 μM, 72 hours", "experimental": "Specifically, MCF-7 breast cancer cells deposited under an accession number of KCTC13643BP on Sep. […] At this time, DMSO (dimethyl sulfoxide) was added to a control group in an amount to be 0.01% of the total medium, 1 μM paclitaxel was added to a positive control group, and then these control group and positive control group were cultured for 72 hours.\nWhen each of the culture times passed after drug treatment, the supernatant of each medium was removed, the MTT reagent was added to the fresh medium so as to be 0.5 mg/ml, the cells were cultured for 3 hours, then the supernatant was removed again, and then the medium was reconstituted with 100 μL of DMSO. Thereafter, the absorbance of cells was measured at 590 nm by using an ELISA instrument."}},
  "data": [
    {"molecule": "Cc1cc(Nc2ncc(Cl)c(Nc3ccccc3S(=O)(=O)C(C)C)n2)c(OC(C)C)cc1C1CCNCC1", "note": "[ceritinib]", "values": [
      {"measurement": "inhibition of growth of HCC-78 cells (in words)", "setting": "HCC-78 cells", "value": "significantly inhibited, particularly time dependently inhibited the growth of HCC-78 cells"},
      {"measurement": "growth rate of HCC-78 cells (control group = 100%)", "setting": "HCC-78 cells; 24 hours after treatment", "value": 73.73, "unit": "%"},
      {"measurement": "growth rate of HCC-78 cells (control group = 100%)", "setting": "HCC-78 cells; 48 hours after treatment", "value": 37.17, "unit": "%"},
      {"measurement": "growth rate of HCC-78 cells (control group = 100%)", "setting": "HCC-78 cells; 72 hours after treatment", "value": 17.99, "unit": "%"},
      {"measurement": "AMP increase as compared with control group", "setting": "HCC-78 cell line", "value": 188.21, "unit": "%"},
      {"measurement": "adenosine decrease as compared with control group", "setting": "HCC-78 cell line", "value": 95.31, "unit": "%"},
      {"measurement": "cAMP decrease as compared with control group", "setting": "HCC-78 cell line", "value": 66.78, "unit": "%"}
    ]},
    {"molecule": "C[C@@H](Oc1cc(-c2cnn(C3CCNCC3)c2)cnc1N)c1c(Cl)ccc(F)c1Cl", "note": "[crizotinib]", "values": [
      {"measurement": "AMP increase", "setting": "MCF-7 cell line", "value": 82.91, "unit": "%"},
      {"measurement": "adenosine decrease", "setting": "MCF-7 cell line", "value": 32.07, "unit": "%"},
      {"measurement": "cAMP decrease", "setting": "MCF-7 cell line", "value": 28.6, "unit": "%"},
      {"measurement": "inhibition of growth of HCC-78 cells (in words)", "setting": "HCC-78 cells", "value": "significantly inhibited, particularly time dependently inhibited the growth of HCC-78 cells"}
    ]},
    {"molecule": "CC(C)(C)c1nc(-c2cccc(NS(=O)(=O)c3c(F)cccc3F)c2F)c(-c2ccnc(N)n2)s1", "note": "[dabrafenib]", "values": [
      {"measurement": "inhibition of cell growth of MCF-7 cell line (in words)", "setting": "[1]; Student's t-test, p value <0.05", "value": "5 kinds of kinase inhibitors except dabrafenib significantly inhibited"}
    ]},
    {"molecule": "COc1cccc2c1C(=O)c1c(O)c3c(c(O)c1C2=O)C[C@@](O)(C(=O)CO)C[C@@H]3O[C@H]1C[C@H](N)[C@H](O)[C@H](C)O1", "note": "[doxorubicin]", "values": [
      {"measurement": "growth rate of HCC-78 cells (control group = 100%)", "setting": "HCC-78 cells; 24 hours after treatment", "value": 57.65, "unit": "%"}
    ]},
    {"molecule": "CC(=O)O[C@H]1C(=O)[C@@]2(C)[C@H]([C@H](OC(=O)c3ccccc3)[C@]3(O)C[C@H](OC(=O)[C@H](O)[C@@H](NC(=O)c4ccccc4)c4ccccc4)C(C)=C1C3(C)C)[C@]1(OC(C)=O)CO[C@@H]1C[C@@H]2O", "note": "[paclitaxel]", "values": [
      {"measurement": "cell growth rate of MCF-7 as compared with control group", "setting": "[1]", "value": 46.86, "unit": "%"}
    ]}
  ]
}
